Data on 1 molecule can be found in US20090318546A1, “Chromen-2-One Derivatives” (NOVARTIS AG, priority 2006, published 2009).

What all share (type): cell-based
One experiment concerns the target T1, S1P5 (Homo sapiens, UniProt Q9H228).
T1 construct: expressed in transfected cells; host or cells: CHO cells (G418 selection)
Description: FLIPR calcium flux assay, CHO cells expressing S1P5. To be noted: agonist activity; read-out: EC50 for S1P-5. The procedure: (§1) A.2 FLIPR Calcium Flux Assay
(§2) Compounds of the invention are tested for agonist activity on S1P1, S1P3, S1P5, and S1P6 with a FLIPR calcium flux assay. Briefly, CHO cells expressing an S1P receptor are maintained in F-12K medium (ATCC), containing 5% FBS, with 500 ug/ml of G418. Prior to the assay, the cells are plated in 384 black clear bottom plates at the density of 10,000 cells/well/25 µl in the medium of F-12K containing 1% FBS. The second day, the cells are washed three times (25 μl/each) with washing buffer. About 25 μl of dye are added to each well and incubated for 1 hour at 37° C. and 5% CO2. The cells are then washed four times with washing buffer (25 μl/each). The calcium flux is assayed after adding 25 μl of SEW2871 (published by Rosen et al., used as reference) solution to each well of cells. The same assay is performed with cells expressing each of the different S1P receptors. Titration in the FLIPR calcium flux assay is recorded over a 3-minute interval, and quantitated as maximal peak height percentage response relative to S1P-1 activation. The compounds of the invention are active in this assay at a concentration of from 10^−12 and […].
(Calcium flux is commonly read through the fluorescence of an indicator in the cells.)

The next experiment deals with T2, S1P-4 (Homo sapiens, UniProt O95977).
T2 construct: expressed in transfected cells; host or cells: CHO cells (G418 selection)
T2 sequence (O95977 1-384): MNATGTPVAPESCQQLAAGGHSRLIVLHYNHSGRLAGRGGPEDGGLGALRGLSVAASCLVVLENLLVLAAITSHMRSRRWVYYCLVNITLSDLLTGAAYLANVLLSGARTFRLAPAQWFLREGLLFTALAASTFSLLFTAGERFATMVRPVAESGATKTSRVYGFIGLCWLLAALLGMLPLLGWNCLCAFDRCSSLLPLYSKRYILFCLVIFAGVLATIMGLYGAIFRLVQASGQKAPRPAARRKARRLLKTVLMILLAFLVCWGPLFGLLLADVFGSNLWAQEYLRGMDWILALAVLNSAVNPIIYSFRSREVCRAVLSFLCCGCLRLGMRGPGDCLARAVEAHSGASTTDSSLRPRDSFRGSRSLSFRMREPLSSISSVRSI
Nature of the experiment: FLIPR calcium flux assay, S1P-4. To be noted: agonist activity.

In another experiment the target is T3, S1P1 (Homo sapiens, UniProt P21453).
T3 construct: expressed in transfected cells; host or cells: CHO cells (G418 selection)
Description: FLIPR calcium flux assay, CHO cells expressing S1P1. The settings on record: agonist activity; read-out: EC50 for S1P-1. The method, then: as §1, §2

Another experiment addresses T4, S1P-2 (Homo sapiens, UniProt O95136).
T4 construct: expressed in transfected cells; host or cells: CHO cells (G418 selection)
Description: FLIPR calcium flux assay, S1P-2. To be noted: agonist activity. The procedure:
as §1, §2

A further experiment addresses T5, S1P3 (Homo sapiens, UniProt Q99500).
T5 construct: expressed in transfected cells; host or cells: CHO cells (G418 selection)
Description: FLIPR calcium flux assay, CHO cells expressing S1P3. The settings on record: agonist activity; read-out: EC50 for S1P-3. The procedure:
as §1, §2

Some results are limits rather than exact numbers.

T1 sequence (Q9H228 whole entry): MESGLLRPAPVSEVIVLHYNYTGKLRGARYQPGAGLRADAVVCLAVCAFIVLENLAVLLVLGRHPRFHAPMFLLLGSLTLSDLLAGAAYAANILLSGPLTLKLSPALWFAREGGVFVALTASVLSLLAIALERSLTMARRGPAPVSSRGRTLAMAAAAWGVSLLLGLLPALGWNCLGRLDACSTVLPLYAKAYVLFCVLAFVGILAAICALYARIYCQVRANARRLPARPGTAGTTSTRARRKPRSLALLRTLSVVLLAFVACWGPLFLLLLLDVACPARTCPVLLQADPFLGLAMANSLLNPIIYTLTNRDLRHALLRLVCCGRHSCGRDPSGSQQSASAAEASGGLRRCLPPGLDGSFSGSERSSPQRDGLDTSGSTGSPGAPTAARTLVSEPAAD
T5 sequence (Q99500 whole entry): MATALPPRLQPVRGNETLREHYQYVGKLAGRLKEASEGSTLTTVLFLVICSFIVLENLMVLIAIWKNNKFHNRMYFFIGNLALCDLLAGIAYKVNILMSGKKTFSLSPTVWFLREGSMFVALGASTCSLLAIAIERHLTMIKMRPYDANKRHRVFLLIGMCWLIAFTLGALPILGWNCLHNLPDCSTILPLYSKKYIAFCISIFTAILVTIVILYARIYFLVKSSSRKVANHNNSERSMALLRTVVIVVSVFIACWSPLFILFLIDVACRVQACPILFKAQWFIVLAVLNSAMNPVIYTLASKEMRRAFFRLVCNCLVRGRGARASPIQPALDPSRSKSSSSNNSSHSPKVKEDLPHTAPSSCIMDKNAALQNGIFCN
T4 sequence (O95136 whole entry): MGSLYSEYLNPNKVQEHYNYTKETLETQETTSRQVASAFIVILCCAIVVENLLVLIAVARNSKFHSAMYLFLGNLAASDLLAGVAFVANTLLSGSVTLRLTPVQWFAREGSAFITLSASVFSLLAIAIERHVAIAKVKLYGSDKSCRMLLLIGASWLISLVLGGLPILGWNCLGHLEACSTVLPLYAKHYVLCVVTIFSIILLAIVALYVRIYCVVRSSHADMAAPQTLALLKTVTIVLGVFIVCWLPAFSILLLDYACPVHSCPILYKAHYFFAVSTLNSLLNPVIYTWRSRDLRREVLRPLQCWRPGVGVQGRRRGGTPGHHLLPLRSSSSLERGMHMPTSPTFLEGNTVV
T3 sequence (P21453 whole entry): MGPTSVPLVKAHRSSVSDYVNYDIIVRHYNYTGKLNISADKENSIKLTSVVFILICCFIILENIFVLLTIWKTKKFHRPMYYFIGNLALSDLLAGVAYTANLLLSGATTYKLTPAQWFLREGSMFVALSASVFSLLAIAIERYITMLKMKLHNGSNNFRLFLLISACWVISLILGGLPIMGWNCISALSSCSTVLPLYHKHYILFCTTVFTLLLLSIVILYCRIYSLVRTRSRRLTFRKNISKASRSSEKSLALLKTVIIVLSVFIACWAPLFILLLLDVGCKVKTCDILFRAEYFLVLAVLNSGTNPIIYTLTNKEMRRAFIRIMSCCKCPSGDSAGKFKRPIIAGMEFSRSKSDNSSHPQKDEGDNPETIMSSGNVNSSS

Turning to `CCCc1c(OC)ccc2cc(C(=O)Nc3ccc(CN)cc3)c(=O)oc12` [Example 1, 7-Methoxy-2-oxo-8-propyl-2H-chromene-3-carboxylic acid (4-aminomethyl-phenyl)-amide], the EC50 on S1P5 was greater than 1 µM; on S1P-4, greater than 1 µM; on S1P1 it was 0.0087 µM; on S1P-2, greater than 1 µM; on S1P3, greater than 1 µM.

Broadly, the EC50 is the concentration at which the effect is half-maximal.
